The assay deals with Proto-oncogene tyrosine-protein kinase Src (Homo sapiens, UniProt P12931). Nature of the assay: Inhibition of Src kinase.

The structures appear in SMILES notation. Bounds are passed on as bounds.

Sequence of Proto-oncogene tyrosine-protein kinase Src (P12931 2-536 limits assumed): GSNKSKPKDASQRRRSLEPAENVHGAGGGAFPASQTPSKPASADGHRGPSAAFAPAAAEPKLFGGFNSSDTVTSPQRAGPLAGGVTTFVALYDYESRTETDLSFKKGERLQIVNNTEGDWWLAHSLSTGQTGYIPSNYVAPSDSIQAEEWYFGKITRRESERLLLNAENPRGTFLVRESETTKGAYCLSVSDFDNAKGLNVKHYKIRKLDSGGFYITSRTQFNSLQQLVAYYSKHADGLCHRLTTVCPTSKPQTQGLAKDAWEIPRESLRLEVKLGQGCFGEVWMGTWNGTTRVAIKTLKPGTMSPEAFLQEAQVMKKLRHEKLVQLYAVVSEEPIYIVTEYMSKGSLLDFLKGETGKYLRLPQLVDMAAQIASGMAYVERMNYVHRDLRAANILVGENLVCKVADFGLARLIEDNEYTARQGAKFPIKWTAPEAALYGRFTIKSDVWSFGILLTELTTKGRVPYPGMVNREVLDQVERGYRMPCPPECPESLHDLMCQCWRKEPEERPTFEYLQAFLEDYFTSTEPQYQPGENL

Compound `COc1cc(Nc2c(C#N)cnc3c(-c4ccc(CN5CCOCC5)cc4)csc23)c(Cl)cc1Cl` gave a concentration for half-maximal inhibition (IC50) of more than 10 µM.

On to `COc1cc(Nc2c(C#N)cnc3cc(-c4ccccc4N4CCN(C)CC4)sc23)c(Cl)cc1Cl`, for which the IC50 was more than 10 µM.

These data come from ChEMBL document CHEMBL1149293, “Identification of 7-phenylaminothieno- [3,2-b]pyridine-6-carbonitriles as a new class of Src kinase inhibitors” (J Med Chem, 2004).
